Measurements reported in patent US8309536B2, “Implant improving local bone formation” (priority 2005, dated 2012).
Several values for one entry are separate records, joined by “and”; a condition that tells them apart may be missing. Identical values can stand only once.

How the values were obtained:
[1] = ZA elution from porous tantalum implants in saline, assayed by UV spectrophotometry; type: physicochemical; settings: for percent of the ZA released: HA-coated implant dosed with 0.05 mg ZA
Description: Assay of ZA Elution. Assays of ZA in solution were achieved using UV spectrophotometry. Bisphosphonates on their own lack a detectable chromophore, making them difficult to assay by simple conventional analytical methods. However, the metal chelating properties of bisphosphonates are well known. When bisphosphonates complex with certain metal ions, a chromophore with suitable. UV activity for spectrophotometric analysis is created (Ostovic D, Stelmach C, Hulshizer B. Pharmaceutical Research. 10:470-472, 1993). The method for assaying ZA in aqueous-based solutions is based on the formation of a ZA complex with iron (III) ions (Kuljanin J, Jankovic I, Nedeljkovic J, Prstojevic D, Marinkovic V. Journal of Pharmaceutical and Biomedical Analysis. 28:1215-1220, 2002). Of the three components in the prescription drug Zometa™ (ZA, mannitol, and sodium citrate), only ZA forms a complex with iron (III) ions. A standard solution of iron (III) chloride in perchloric acid is added to known concentrations of Zometa™ and the absorbance is measured at 290 nm to create a calibration curve. A highly acidic medium is needed to prevent the hydrolysis of the iron (III) ions. Aliquots of the soak solution from the Zometa™-coated implants can be analyzed by adding the standard iron (III) chloride solution to the soak solution and measuring the absorbance at 290 nm. By measuring the absorbance, the concentration of the sample can be calculated and thus the mass of the drug released from the implant for a given time period can be determined.
Four porous tantalum implants with and without HA coating were deposited with 0.05 mg of ZA as described. For each implant group, elution characteristics were ascertained by immersing each implant in a test tube containing 5 ml of 0.9% saline at […]. At mutiple test intervals (1 min, 3 min, 5 min, 10 min, 15 min, 30 min, 1 hr, 6 hrs, 12 hrs, 1 day, 3 days, 7 days, 14 days, 21 days, 42 days, 84 days, and 98 days), the implant was removed from the test tube, the saline was thoroughly mixed, and aliquots were removed for ZA assays using UV spectrophotometry. After each time interval for each implant, the implant was placed in a test tube with fresh replacement of 5 ml of saline. This elution model avoided build up of boundary layers and more closely resembled a dynamic system. The 84-day assay time corresponded to the 12 week length of the in vivo implant studies. Assays ceased once the total amount of ZA was released.

[2] = system: canine ulnar intramedullary implant model; experiment: Canine ulnar intramedullary implant model, HA coated porous tantalum implants dosed with ZA (local delivery), 12 weeks, quantitative histology; type: in vivo, dog
Description: In Vivo Studies. The previously described canine ulnar intramedullary implant model was utilized (study approved by institutional review board) (Bobyn J D, Tanzer M, Harvey EJ, Krygier JJ, Little DG. J Bone Joint Surg (Br), In press, 2005). The surgical procedure involved anesthetizing the dog with a general anesthesia and under sterile conditions exposing the proximal ulna. A two-centimeter incision was made over the olecranon process and the triceps tendon was split by sharp dissection down to bone. Under fluoroscopic guidance, a 5.0 mm drill was oriented along the long axis of the ulna and in line with the intramedullary canal. A 5.5 cm long hole was drilled under fluoroscopy to ensure the proper orientation of the drill hole and to prevent cortical penetration. The porous implant was then tapped down the intramedullary canal of the ulna with a punch and mallet. The implant was slightly countersunk to avoid postoperative irritation of the overlying triceps tendon. The wound was irrigated and closed in a standard fashion. The procedure was repeated on the contralateral side. Positioning of the implants inevitably varied somewhat in terms of depth of insertion within the canal and spatial orientation within the canal. […] Each dog received either two control HA coated implants without ZA or two HA coated implants dosed with 0.05 mg ZA. Five control dogs and four with ZA-dosed implants were studied at 12 weeks. This protocol was utilized instead of one with a control and a ZA-dosed implant in each animal because it avoided the possibility of systemic absorption of ZA from one side and influence of a control implant on the other side.
Histological examination. After sacrifice, the ulnae were harvested, stripped of soft tissue, radiographed and processed for undecalcified hard-section histology (FIG. 6). This involved dehydration in ascending solutions of ethanol, defatting in ether and acetone, and embedding in methylmethacrylate. Each implant was cut transversely into 6 or 7 sections at 7-8 mm intervals. The sections were radiographed and polished, sputter coated with gold-palladium, and imaged with backscattered scanning electron microscopy. For each section, computerized image analysis based on grey level discrimination was used to identify bone and implant and to generate quantitative information on the extent of bone ingrowth, defined as the percentage of the available porosity that was filled with new bone. Also tabulated in each section was the number and size of the individual islands of bone within the implant pores. In sections cut through the ulnar diaphysis, where delineation of the endosteal cortex was clearly evident, the total area of peri-implant bone contained within the intramedullary canal was also tabulated. In these calculations the implant area (and bone within) was not included. For each section, the peri-implant bone was expressed as a percentage of the total peri-implant area within the intramedullary canal (not including the implant).
Statistical analysis. The quantitative histological data were statistically analyzed using multiple two-level hierarchical models. At the first level of the model, the set of results from the limbs of each dog was assumed to follow a normal distribution with dog-specific means and a global variance parameter. At the second level of the model, the means from each dog in each group (control, ZA-dosed) from the first level followed a second normal distribution, with the mean representing the overall mean for the treatment or control groups and the variance representing the variability within the group. A similar statistical model was also run where the results for each dog were allowed to vary with the distance (section level) along the ulna. […] The mean values and differences between means for control and ZA-dosed implants were estimated with 95% confidence intervals (CI).

[3] = system: canine ulnar intramedullary implant model; experiment: Canine ulnar intramedullary implant model, single intravenous dose of ZA, porous tantalum rods implanted for 6 weeks; type: in vivo
Description: The hypothesis that bisphosphonates have a positive effect on net bone growth, particularly into porous implants, was first confirmed by conducting a canine ulnar intramedullary implant model in which porous tantalum rods were implanted for 6 weeks. (Bobyn J D, Tanzer M, Harvey EJ, Krygier JJ, Little DG. J Bone Joint Surg (Br), 2005) Immediately after surgery, seven test animals with 14 ulnar implants were administered a single intravenous dose of 0.1 mg/kg ZA (Novartis Pharma A G, Basel, Switzerland). Because of the systemic exposure of test animals to ZA it was necessary to utilize external control data from a prior experiment (Tanzer M, Kantor S, Bobyn J D. J Arthrop 19:195-199, 2002) for comparisons of bone ingrowth. The mean extent of bone ingrowth was 6.6% for the control implants and 12.2% for the ZA-treated implants, a relative difference of 85% that was statistically significant.

[4] = system: canine ulnar intramedullary implant model; experiment: Canine ulnar intramedullary implant model, HA coated porous tantalum implants dosed with ZA (local delivery), 12 weeks, quantitative histology; type: in vivo, dog; settings: total ZA doses of 0.2 mg and 0.4 mg, relative to 0.05 mg
bone resorption = settings: cited from earlier work; for potency at inhibiting bone resorption relative to second generation bisphosphonates (in words): third generation bisphosphonates which contain a tertiary nitrogen
[5] = system: murine (MC3T3) osteoblastic cells; settings: Peter et al 2004; cited from earlier work
[6] = system: human (MG-63) osteoblastic cells; settings: Peter et al 2004; cited from earlier work
distraction osteogenesis = settings: cited from earlier work
regenerate bone / callus = settings: Smith et al 2003; net bone accumulation due to increased retention of callus; cited from earlier work
alveolar bone resorption = settings: local application following periodontal surgery in rats; cited from earlier work
[7] = system: soft tissue formation at implant site; settings: single application via a sponge to an implant site, rat; cited from earlier work
[8] = system: knee prostheses migration; settings: early postoperative oral regimen, radiostereometry; cited from earlier work
[9] = individual ZA dogs 1-4, 0.05 mg ZA, 12 weeks

O=P(O)(O)C(O)(Cn1ccnc1)P(=O)(O)O [ZA, zoledronic acid]
percent of the ZA released ([1]; 0.9% saline, after soaking for 6 weeks): ~95%
percent of the ZA released ([1]; 0.9% saline, within 1 hour): about 65%
release of zoledronic acid in saline (in words, FIG. 7) ([1]; implants without HA coating compared to those with HA coating, 0.05 mg): rapid and complete release
time within which all of the ZA was released ([1]; non-HA coated porous tantalum implant dosed with 0.05 mg ZA, 0.9% saline): ≤ 1 h
more net bone growth into ZA-dosed implants compared with controls, relative ([2]; 0.05 mg ZA, 12 weeks): 58%
peri-implant bone around ZA-dosed implants relative to controls ([2]; 0.05 mg ZA, 12 weeks): 2.3 times
peri-implant bone on contact radiographs, ZA-dosed vs control implants (in words) ([2]; 0.05 mg ZA, 12 weeks): almost always more dense and/or abundant
relative difference in the size of the bone islands, ZA-dosed vs control ([2]; 0.05 mg ZA, 12 weeks): 71%
Bone Island Size, overall Mean (95% CI) ([2]; 0.05 mg ZA, 12 weeks, 54 sections, 8 implants): 0.023 (0.016 to 0.031) mm^2
bone islands larger in the ZA-dosed implants than in controls, difference ([2]; 0.05 mg ZA, 12 weeks, 95% CI 0.001 to 0.017): 0.009 mm^2
difference of the means of peri-implant bone filling, ZA-dosed vs control ([2]; 0.05 mg ZA, 12 weeks, 95% CI 3.3 to 33.7): 18.4%
difference in mean extent of bone ingrowth, ZA-dosed vs control ([2]; 0.05 mg ZA, 12 weeks, 95% CI 3.5 to 11.1): 7.3%
histologic evidence of cellular toxicity ([2]; 0.05 mg dose): without any histologic evidence of cellular toxicity
Peri-implant bone relative to intramedullary canal size, overall Mean (95% CI) ([2]; HA coated implants dosed with 0.05 mg ZA, 12 weeks, 24 diaphyseal sections, 8 implants): 32.2 (21.7 to 43.0) %
Mean extent of bone ingrowth, overall Mean (95% CI) ([2]; HA coated implants dosed with 0.05 mg ZA, 12 weeks, 54 sections, 8 implants): 19.8 (16.9 to 22.6) %
# Bone Islands, by dog [2, 9]: 109 and 155 and 206 and 131
Bone Island Size, by dog [2, 9]: 0.033 mm^2 and 0.016 mm^2 (2×) and 0.028 mm^2
Mean extent of bone ingrowth, by dog ([2]; individual ZA dogs 1-4, HA coated implants dosed with 0.05 mg ZA, 12 weeks): 16.0% and 20.3% (2×) and 22.6%
Peri-implant bone relative to intramedullary canal size, by dog ([2]; individual ZA dogs 1-4, HA coated implants dosed with 0.05 mg ZA, 12 weeks, diaphyseal sections): 19.8% and 38.5% and 30.4% and 40.0%
bone formation on increasing the dosage of ZA ([2]; total ZA doses of 0.2 mg and 0.4 mg, relative to 0.05 mg): more bone formation around and within the implant
complications or systemic illness related to the ZA administration ([2]; two HA coated implants dosed with 0.05 mg ZA per dog, 12 weeks): No dogs had any complications or systemic illness
average bone island size larger in the ZA-treated group ([3]; 0.1 mg/kg ZA intravenous): 69%
relative difference in bone ingrowth, ZA-treated vs external control implants ([3]; 0.1 mg/kg ZA intravenous, statistically significant): 85%
mean extent of bone ingrowth ([3]; single intravenous dose of 0.1 mg/kg ZA, 14 ulnar implants, own earlier published study): 12.2%
kind of the additional bone formed at higher doses [4]: woven bone
potency relative to alendronate (bone resorption; Green 2001, Li and Davis 2003): 250 times
potency relative to pamidronate (bone resorption; Green 2001, Li and Davis 2003): 100 times
potency at inhibiting bone resorption relative to second generation bisphosphonates (in words) (bone resorption): even more potent
concentration below which ZA can be considered safe for cellular activity [5]: below 10 μM
concentration below which ZA can be considered safe for cellular activity [6]: below 10 μM
effect on osteopenia and regenerate bone (distraction osteogenesis; one or two doses of ZA): abolished osteopenia and increased regenerate volume, mineralization and strength
bone formation rate (regenerate bone / callus): reduced

NCCCC(O)(P(=O)(O)O)P(=O)(O)O [alendronate]
effect on alveolar bone resorption (alveolar bone resorption): reduce alveolar bone resorption
effect on soft tissue forming from resorptive remodeling due to repetitive implant motion [7]: reduces the amount of soft tissue

O=P(O)(O)C(Cl)(Cl)P(=O)(O)O [clodronate]
effect on migration of knee prostheses [8]: reduced migration of knee prostheses

CCCCCN(C)CCC(O)(P(=O)(O)O)P(=O)(O)O [ibandronate]
potency at inhibiting bone resorption relative to second generation bisphosphonates (in words) (bone resorption): even more potent

NCCC(O)(P(=O)(O)O)P(=O)(O)O [pamidronate]
effect on disuse osteopenia and regenerate bone (distraction osteogenesis; single postoperative intravenous dose of pamidronate (3 mg/kg)): decreased the disuse osteopenia normally associated with lengthening and increased the amount and density of the regenerate bone

O=P(O)(O)C(O)(Cc1cccnc1)P(=O)(O)O [risendronate]
potency at inhibiting bone resorption relative to second generation bisphosphonates (in words) (bone resorption): even more potent
